Laboratory results reported in patent publication US20130296224A1, “METHOD FOR TREATMENT OF INFLAMMATORY DISEASE AND DISORDER” (HealOr Ltd., priority 2011, published 2013).
The star is where a group is joined. Palmitoyl = CCCCCCCCCCCCCCCC(=O)*; Myristoyl = CCCCCCCCCCCCCC(=O)*

Key:
[1] = tested on: activated keratinocytes; experiment: Cytokine secretion in LPS, TNFα or IL-17 activated keratinocytes treated with peptide PKCα inhibitors (ELISA); type: cell-based, BALB/C mice; conditions: for cytokine secretion from LPS and TNFα activated keratinocytes: FIGS. 19 to 23; for cytokine secretion from IL-17A activated keratinocytes: FIGS. 24 to 27; for cytokine secretion in keratinocytes stimulated by LPS, TNFα, or IL-17: medium collected after 48 hr, ELISA
Experimental: To determine their effects, keratinocytes were derived from newborn BALB/C mice skin. The cells were incubated for 5 days in 24 wells plate. Cells were then incubated with PBS −/− as control or stimulated by LPS, TNFα, or IL-17. PKCα inhibitors were added as indicated. Medium containing secreted cytokines was collected after 48 hr and analyzed using ELISA. FIG. 50 is a tabular summary of cytokine secretion.

[2] = tested on: EAE mice; experiment: Experimental allergic encephalomyelitis (EAE), MOG35-55/CFA immunized mice; type: in vivo, C57BL/6J mice; set-up: EAE severity / average group score at the end of the experiment (day 42): dose or concentration left out as unconfirmed; conditions: for EAE score on the initial day (in brackets): scale 0-6; for Number of dead mice during 49 days: n=7 per group; for Score on day 29 / Score on day 37 / Score on day 18: EAE scale 0-6
[3] = tested on: keratinocytes stimulated by TNFα; experiment: Cytokine secretion in stimulated keratinocytes treated with PKCδ activator (ELISA); type: cell-based, BALB/C mice; conditions: medium collected after 48 hr
Experimental: (§1) PKCδ activators were also shown to have an anti-inflammatory effect on keratinocytes and splenocytes. Keratinocytes were derived from newborn BALB/C mice skin. The cells were incubated for 5 days in 24 wells plate. Cells were then incubated with PBS−/− as control or stimulated by LPS or TNFα. The PKCδ inhibitor DAP-1 (SEQ ID NO: 34) was added. Medium containing secreted cytokines was collected after 48 hr and analyzed using ELISA. FIG. 43 is a tabular summary showing cytokine secretion in splenocytes stimulated with LPS. FIG. 44 is a tabular summary of cytokine secretion in keratinocytes stimulated by TNFα.

[4] = tested on: splenocytes stimulated with LPS; experiment: Cytokine secretion in splenocytes stimulated with LPS, treated with PKCδ activator; type: cell-based
Experimental: as §1

[5] = tested on: macrophages (Iba-1); experiment: Macrophage infiltration in skin wound (Iba-1 staining); type: in vivo, C57BL/6J mouse; conditions: daily treatment, five days post-wounding
Experimental: The effect of MPDY-1 on macrophage infiltration was also shown by Iba-1 staining. Iba-1 is a general marker for macrophages. […] As above, a two-cm longitudinal incision was done on the upper back of a C57BL/6J mouse. Following wounding, a sterile pad was sutured to the mouse's skin. Animals were treated daily with MPDY-1 (n=6). Five days post-wounding, when inflammatory phase reaches its peak, the mice were sacrificed, skin tissues were embedded in paraffin and immunohistochemical staining was performed utilizing anti-Iba-1 antibodies.

[6] = tested on: activated macrophages (MAC-2); experiment: Macrophage activation in skin wound (MAC-2 staining); type: in vivo, C57BL/6J mouse; conditions: daily treatment, 5 days; control vs 10 μg p=0.0028
Experimental: The effect of MPDY-1 on macrophage activation was also shown by MAC-2 staining. MAC-2 is a specific marker for activated macrophages. […] A two-cm longitudinal incision was done as described above. Animals were treated daily with DPBS^−/− (Control) or MPDY-1 in the specified concentrations (n=6). After 5 days immunohistochemical staining was performed utilizing anti-MAC-2 antibodies. Bar […]. (*p(control Vs. MPDY-1 10 μg)=0.0028).

[7] = tested on: IKK; experiment: TNFα induced IKK activation in keratinocytes (Western blot phospho-IKKa/b Ser176/180); type: cell-based, Murine; conditions: 1 hour pretreatment, TNFα 35 ng/ml 15 minutes
Experimental: Murine primary keratinocytes were grown for 4 days to full confluence in Low Ca^+2 MEM. Cells were pretreated with designated concentration of MPDY-1 as described in the figure for 1 hour, prior to TNFα induction. Following MPDY-1 pretreatment, cells were incubated with TNFα 35 ng/ml for 15 minutes. Reaction was stopped by adding ice-cold dPBS−/− and keratinocytes were homogenized in RIPA buffer. Samples were subjected to SDS PAGE Western Blot analysis, utilizing phospho-IKKa/b (Ser176/180 antibody).

[8] = tested on: histamine induced pruritus; experiment: Histamine prick test model of pruritus; type: in vivo, healthy volunteers; conditions: topical application on forearm, photographs at 0, 10, 20, 30 minutes
Experimental: Forearms of individual subjects were injected with histamine solution and placebo. The formulation of Example 4 was topically applied with MPDY-1 at various concentrations and pruritus was assessed over a time course as shown in FIGS. 39-42.
This test was performed by placing a drop of a solution containing a possible allergen on the skin, and a series of scratches or needle pricks allow the solution to enter the skin. The extract enters into the outer layer of the skin (epidermis) using a fine needle (such as a. 26G disposable needle). This testing is not painful, and generally there is no bleeding involved since the needle only scratches the surface of the skin. If the skin develops a red, raised itchy area (called a wheal), it is as a result of allergic reaction to that allergen. This is called a positive reaction. A drop of extract is introduced through a fine needle (such as a No. 26 disposable needle). The test causes no discomfort and minimal trauma so that controls and negative test show only the site of the prick; if anything.
26G needles were utilized to introduce histamine stock (Histatrol Positive Control Histamine, 1 mg/ml, code #HIST14999V, Trupharm). The test was conducted on healthy volunteers in a double-blind, randomized test. The formulations were applied on the forearms. […]

[9] = 0.1 mg/kg i.p. three times a week
[10] = 1 mg/kg i.p. three times a week

Substance: H-Phe-Ala-Arg-Lys-Gly-Ala-Leu-Arg-Gln-OH-acetate salt (H-FARKGALRQ-OH; also: acetate salt) [PDY-1]
- cytokine secretion from LPS and TNFα activated keratinocytes [1]: decrease cytokine secretion
- cytokine secretion from IL-17A activated keratinocytes [1]: decrease cytokine secretion

Substance: Myristoyl-Thru-Arg-Lys-Arg-Gln-Arg-Ala-Met-Arg-Arg-Arg-Val-His-Gln-Ile-Asn-Gly-OH (Myristoyl-TRKRQRAMRRRVHQING-OH; SMILES CCCCCCCCCCCCCC(=O)N[C@H](C(=O)N[C@@H](CCCNC(=N)N)C(=O)N[C@@H](CCCCN)C(=O)N[C@@H](CCCNC(=N)N)C(=O)N[C@@H](CCC(N)=O)C(=O)N[C@@H](CCCNC(=N)N)C(=O)N[C@@H](C)C(=O)N[C@@H](CCSC)C(=O)N[C@@H](CCCNC(=N)N)C(=O)N[C@@H](CCCNC(=N)N)C(=O)N[C@@H](CCCNC(=N)N)C(=O)N[C@H](C(=O)N[C@@H](Cc1c[nH]cn1)C(=O)N[C@@H](CCC(N)=O)C(=O)N[C@H](C(=O)N[C@@H](CC(N)=O)C(=O)NCC(=O)O)[C@@H](C)CC)C(C)C)[C@@H](C)O) [MPE-1]
- EAE severity [2]: reduced EAE severity
- The initial day (first illness signs) [2, 9]: 11 days
- EAE score on the initial day (in brackets) [2, 9]: 0.429
- The initial day (first illness signs) [2, 10]: 10 days
- Number of dead mice during 49 days ([2]; 1 mg/kg i.p.): 4
- EAE score on the initial day (in brackets) ([2]; 1 mg/kg i.p.): 0.429
- average group score at the end of the experiment (day 42) ([2]; control group 2.86): 2.00

Substance: H-Thr-Leu-Asn-Pro-Gln-Trp-Glu-Ser-OH (H-TLNPQWES-OH) [AIP-1]
- cytokine secretion in keratinocytes stimulated by LPS, TNFα, or IL-17 [1]: effective in decreasing cytokine secretion

Substance: H-His-Phe-Glu-Asp-Trp-Ile-Asp-His-Phe-Glu-Asp-Trp-Ile-Asp-OH (H-HFEDWIDHFEDWID-OH) [DAP-1]
- inflammatory cytokine secretion in keratinocytes [3]: significantly decease inflammatory cytokine secretion
- inflammatory cytokine secretion in splenocytes [4]: significantly decease inflammatory cytokine secretion

Substance: Myristoyl-Phe-Ala-Arg-Lys-Gly-Ala-Leu-OH-trifluoracetate salt (Myristoyl-FARKGAL-OH; also: trifluoracetate salt) [AIP-2]
- cytokine secretion in keratinocytes stimulated by LPS, TNFα, or IL-17 [1]: effective in decreasing cytokine secretion

Substance: Myristoyl-Phe-Ala-Arg-Lys-Gly-Ala-Leu-Arg-Gln-OH (Myristoyl-FARKGALRQ-OH; SMILES CCCCCCCCCCCCCC(=O)N[C@@H](Cc1ccccc1)C(=O)N[C@@H](C)C(=O)N[C@@H](CCCNC(=N)N)C(=O)N[C@@H](CCCCN)C(=O)NCC(=O)N[C@@H](C)C(=O)N[C@@H](CC(C)C)C(=O)N[C@@H](CCCNC(=N)N)C(=O)N[C@@H](CCC(N)=O)C(=O)O) [MPDY-1]
- macrophage infiltration (Iba-1 positive cells per field) [5]: dose dependent effect
- activation of macrophages (MAC-2 positive cells per field) [6]: significantly inhibited
- TNFα induced IKK activation in keratinocytes [7]: significantly reduced
- concentration exhibiting the strongest inhibition of IKK activation (lowest tested) [7]: 0.1 mg/mL
- cytokine secretion from LPS and TNFα activated keratinocytes [1]: decrease cytokine secretion
- cytokine secretion from IL-17A activated keratinocytes [1]: decrease cytokine secretion
- cytokine secretion in keratinocytes stimulated by LPS, TNFα, or IL-17 [1]: effective in decreasing cytokine secretion
- EAE severity [2]: reduced EAE severity
- EAE score / clinical symptoms compared to the control group ([2]; 0.1 mg/kg): lower score during most of the experiment days
- The initial day (first illness signs) [2, 9]: 13 days
- EAE score on the initial day (in brackets) [2, 9]: 1.000
- Score on day 29 ([2]; 0.1 mg/kg i.p.): 2.000
- Score on day 37 ([2]; 0.1 mg/kg i.p.): 1.500
- The initial day (first illness signs) [2, 10]: 11 days
- Number of dead mice during 49 days ([2]; 1 mg/kg i.p.): 2
- EAE score on the initial day (in brackets) ([2]; 1 mg/kg i.p.): 0.214
- redness, inflammation and pruritus compared with control over the time course [8]: significantly attenuated redness, inflammation and pruritus

Substance: Palmitoyl-Phe-Ala-Arg-Lys-Gly-Ala-Leu-Arg-Gln-OH-acetate salt (Palmitoyl-FARKGALRQ-OH; also: acetate salt) [PPDY-1]
- cytokine secretion in keratinocytes stimulated by LPS, TNFα, or IL-17 [1]: effective in decreasing cytokine secretion

Substance: H-Phe-Ala-Arg-Lys-Gly-Ala-Leu-Arg-Gln-OH (H-FARKGALRQ-OH) [AWOT-1]
- cytokine secretion in keratinocytes stimulated by LPS, TNFα, or IL-17 [1]: effective in decreasing cytokine secretion

Substance: Myristoyl-Phe-Ala-Arg-Lys-Gly-Ala-Leu-OH (Myristoyl-FARKGAL-OH; SMILES CCCCCCCCCCCCCC(=O)N[C@@H](Cc1ccccc1)C(=O)N[C@@H](C)C(=O)N[C@@H](CCCNC(=N)N)C(=O)N[C@@H](CCCCN)C(=O)NCC(=O)N[C@@H](C)C(=O)N[C@@H](CC(C)C)C(=O)O) [MPDY-1 sh]
- cytokine secretion from LPS and TNFα activated keratinocytes [1]: decrease cytokine secretion
- cytokine secretion from IL-17A activated keratinocytes [1]: decrease cytokine secretion

Substance: CRAMP: comparison treatment in the EAE study (0.2 and 2 mg/kg); not further described (ISRLAGLLRKGGEKIGEKLKKIGQKIKNFFQKLVPQPE; Cathelin-related antimicrobial peptide; UniProt P51437 135-172, looked up) [reference compound]
- The initial day (first illness signs) ([2]; 0.2 mg/kg i.p. three times a week): 10 days
- Score on day 18 ([2]; 0.2 mg/kg i.p.): 3.214
- Score on day 29 ([2]; 0.2 mg/kg i.p.): 2.000
- Score on day 37 ([2]; 0.2 mg/kg i.p.): 2.571
- Number of dead mice during 49 days ([2]; 0.2 mg/kg i.p.): 2
- EAE score on the initial day (in brackets) ([2]; 0.2 mg/kg i.p.): 0.571
- The initial day (first illness signs) ([2]; 2 mg/kg i.p. three times a week): 11 days
- Score on day 18 ([2]; 2 mg/kg i.p.): 2.643
- Score on day 29 ([2]; 2 mg/kg i.p.): 2.643
- Score on day 37 ([2]; 2 mg/kg i.p.): 2.143
- Number of dead mice during 49 days ([2]; 2 mg/kg i.p.): 2
- EAE score on the initial day (in brackets) ([2]; 2 mg/kg i.p.): 0.143
